Test system: db/db diabetic mice
Test: Blood glucose levels in db/db diabetic mice after i.p. injection
Assay type: in vivo
Method: Blood glucose levels were measured At different time points after dosing.
Study Procedure: Animals were acclimated to researcher's handling procedures. Baseline glucose levels were measured prior to drug administration. Outlier animals with glucose level <300 or >600 mg/dL were excluded from the study. Animals were assigned randomly to different groups, as follows:
At different time points (1, 2, 4, 8, and 24 hrs), blood was collected by tail clipping, and glucose level was measured using a One Touch® Ultra glucometer (Johnson & Johnson; Life Scan Ltd.)

dextran-butyrALD-40K-insulin [20b]
Glucose level, mean (250 ug/mouse ip, 1 hr): 263+39 mg/dL | reduction of glucose level vs time 0 (250 ug/mouse ip, 1 hr): 47% | Glucose level, mean (250 ug/mouse ip, 1 hr, listed as Dex-Ins): 263 mg/dL | Glucose level, mean (250 ug/mouse ip, 2 hr): 192+36 mg/dL | reduction of glucose level vs time 0 (250 ug/mouse ip, 2 hr): 61% | Glucose level, mean (250 ug/mouse ip, 2 hr, listed as Dex-Ins): 192 mg/dL | Glucose level, mean (250 ug/mouse ip, 4 hr): 462 mg/dL | Glucose level, mean (250 ug/mouse ip, 8 hr): 494 mg/dL | Glucose level, mean (250 ug/mouse ip, 24 hr): 517 mg/dL | Glucose level, mean (250 ug/mouse ip, time 0 (baseline)): 495+32 mg/dL | Glucose level, mean (250 ug/mouse ip, time 0 (baseline), listed as Dex-Ins): 495 mg/dL

insulin
Glucose level, mean (5 ug/mouse ip, 1 hr): 265 mg/dL | reduction of glucose level vs time 0 (5 ug/mouse ip, 1 hr): 48% | Glucose level, mean (5 ug/mouse ip, 2 hr): 352 mg/dL | reduction of glucose level vs time 0 (5 ug/mouse ip, 2 hr): 31% | Glucose level, mean (5 ug/mouse ip, 4 hr): 587 mg/dL | Glucose level, mean (5 ug/mouse ip, 8 hr): 538 mg/dL | Glucose level, mean (5 ug/mouse ip, 24 hr): 538 mg/dL | Glucose level, mean (5 ug/mouse ip, time 0 (baseline)): 510 mg/dL | Glucose level, mean (50 ug/mouse ip, 1 hr): 210 mg/dL | reduction of glucose level vs time 0 (50 ug/mouse ip, 1 hr): 53% | Glucose level, mean (50 ug/mouse ip, 2 hr): 150 mg/dL | reduction of glucose level vs time 0 (50 ug/mouse ip, 2 hr): 67% | Glucose level, mean (50 ug/mouse ip, 4 hr): 550 mg/dL | Glucose level, mean (50 ug/mouse ip, 8 hr): 558 mg/dL | Glucose level, mean (50 ug/mouse ip, 24 hr): 541 mg/dL | Glucose level, mean (50 ug/mouse ip, time 0 (baseline)): 445 mg/dL

Source: patent US9173951B2, “Carbohydrate-based drug delivery polymers and conjugates thereof” (NEKTAR THERAPEUTICS, priority 2008, dated 2015)
